Experimental data taken from patent publication US8658650B2, “Substituted 1,1,3,1-tetraoxidobenzo[D][1,3,2]dithiazoles as MGLUR4 allosteric potentiators, compositions, and methods of treating neurological dysfunction” (Vanderbilt University, priority 2009, dated 2014).
Where two headings read alike, the source gives them in different places.

Legend:
[1] = molecular target: mGluR4 (UniProt Q14833); experiment: mGluR4 potentiation assay (activity table; fluorescence plate reader, compound then EC20 agonist); assay type: cell-based; conditions: for % GluMax: maximum extent of potentiation; for EC50: potentiation of mGluR4, species of receptor not given
Protocol: The disclosed compounds and compositions can be evaluated for their ability to act as a potentiator of metabotropic glutamate receptor activity, in particular mGluR4 activity, by any suitable known methodology known in the art. For example, Chinese Hamster Ovary (CHO) cells transfected with human mGluR4 or HEK cells co-transfected with rat mGluR4 and the G-protein regulated Inwardly Rectifying Potassium channel (GIRK) were plated in clear bottom assay plates for assay in a Hamamatsu FDSS Fluorometric Plate Reader. The cells were loaded with either a Ca2+-sensitive fluorescent dye Fluo-4 or the thallium responsive dye BTC, AM and the plates were washed and placed into a suitablekinetic plate reader. For human mGluR4 assays, a fluorescence baseline was established for 3-5 seconds, the disclosed compounds were then added to the cells, and the response in cells was measured. Approximately two and a half minutes later, a concentration of mGluR4 orthosteric agonist (e.g. glutamate or L-AP4) eliciting approximately 20% (EC20) of the maximal agonist response was added to the cells, and the response was measured. Two minutes later, a concentration of mGluR4 agonist (e.g. glutamate or L-AP4) eliciting 80% (EC80) of the maximal agonist response was added to the cells, and the response was measured. For rat mGluR4/GIRK experiments, a baseline was established for approximately five seconds, disclosed compounds were added, and either an EC20 or EC80 concentration of agonist was added approximately two and one half minutes later. Potentiation of the agonist response of mGluR4 by the disclosed compounds was observed as an increase in response to the EC20 concentration of agonist in the presence of compound compared to the response to agonist in the absence of compound. Similarly, antagonism of the agonist response of mGluR4 by the disclosed compounds was observed as a decrease in response to the EC80 concentration of agonist in the presence of compound compared to the response to agonist in the absence of compound.
The above described assay operated in two modes. In the first mode, a range of concentrations of the disclosed compounds are added to cells, followed by a single fixed concentration of agonist. If the compound acts as a potentiatior, an EC50 value for potentiation and a maximum extent of potentiation by the compound at this concentration of agonist is determined by non-linear curve fitting. If the compound acts as a noncompetitive antagonist, an IC50 value is determined by non-linear curve fitting. In the second mode, several fixed concentrations of the disclosed compounds are added to various wells on a plate, followed by a range in concentrations of agonist for each concentration of disclosed compound. The EC50 values for the agonist at each concentration of compound are determined by non-linear curve fitting. A decrease in the EC50 value of the agonist with increasing concentrations of the sample compound (a leftward shift of the agonist concentration-response curve) is an indication of the degree of mGluR4 potentiation at a given concentration of the sample compound. A decrease in the maximal response of the agonist with increasing concentrations of the sample compounds, with or without a rightward shift in agonist potency, is an indication of the degree of noncompetitive antagonism at mGluR4. The second mode also indicates whether the sample compounds also affect the maximum response to mGluR4 to agonists.
These compounds are positive allosteric modulators (potentiators) of human and rat mGluR4 and were selective for mGluR4 compared to the other seven subtypes of metabotropic glutamate receptors.

[2] = intraperitoneal pharmacokinetics in male SD rats (plasma and brain); assay type: in vivo, rat; set-up: AUC(0-8) Brain: unit not given here; conditions: 10 mg/kg ip; for AUC(0-8) Brain / AUC(0-t): 0-8 h; for Log BB: brain/plasma
Protocol: FIG. 2 is a graph showing intraperitoneal pharmacokinetics of a compound of the present invention in male SD rats (N=3); Formulation: 10% tween 80 microsuspension; Dose: 10 mg/kg; Time points: 0.5 h, 1 h, 2 h, 4 h & 8 h; data are summarized in Table 1 and Table 2.
FIG. 3 is a graph showing intraperitoneal pharmacokinetics of a compound of the present invention in male SD rats (˜300 g); Dose:10 mg/kg, ip; Time points: 0.5 h, 1 h & 8 h (n=3); data are summarized in Table 1 and Table 2.
FIG. 4 is a graph showing intraperitoneal pharmacokinetics of a compound of the present invention in male SD rats (˜300 g); Dose:10 mg/kg, ip; Time points: 0.5 h, 1 h & 8 h (n=3); data are summarized in Table 1 and Table 2.
Additionally, certain exemplary disclosed compounds were evaluated for pharmacokinetic efficacy.

[3] = rat, brain, read-out: Elimination T1/2 Brain (converted)
[4] = rat, brain, read-out: Tmax Brain
[5] = rat, plasma, read-out: Elimination T1/2 Plasma (converted)
[6] = rat, plasma, read-out: Tmax Plasma

Row | SMILES | % GluMax [1] [%] | EC50 [1] [nM] | also measured
1 | O=C(Nc1ccc(N2S(=O)(=O)c3ccccc3S2(=O)=O)cc1)c1ccccc1 [Example 1, N-(4-(1,1,3,3-tetraoxidobenzo[d][1,3,2]dithiazol-2-yl)phenyl)benzamide] | 146 | 203 | –
2 | O=C(Nc1ccc(N2S(=O)(=O)c3ccccc3S2(=O)=O)cc1)C1CCCCC1 [Example 3, N-(4-(1,1,3,3-tetraoxidobenzo[d][1,3,2]dithiazol-2-yl)phenyl)cyclohexanecarboxamide] | 96 | 128 | –
3 | O=C(Nc1ccc(N2S(=O)(=O)c3ccccc3S2(=O)=O)cc1)c1cccc(F)n1 [Example 5, 6-Fluoro-N-(4-(1,1,3,3-tetraoxidobenzo[d][1,3,2]dithiazol-2-yl)phenyl)picolinamide] | 198 | 179 | –
4 | O=C(Nc1ccc(N2S(=O)(=O)c3ccccc3S2(=O)=O)cc1)c1ccncn1 [Example 6, N-(4-(1,1,3,3-tetraoxidobenzo[d][1,3,2]dithiazol-2-yl)phenyl)pyrimidine-4-carboxamide] | 247 | 286 | –
5 | O=C(Nc1ccc(N2S(=O)(=O)c3ccccc3S2(=O)=O)cc1)c1ncccc1F [Example 8, 3-Fluoro-N-(4-(1,1,3,3-tetraoxidobenzo[d][1,3,2]dithiazol-2-yl)phenyl)picolinamide] | 69 | 49.6 | –
6 | O=C(Nc1ccc(N2S(=O)(=O)c3ccccc3S2(=O)=O)cc1)C1CCCCO1 (centres unmarked) [Example 9, N-(4-(1,1,3,3-tetraoxidobenzo[d][1,3,2]dithiazol-2-yl)phenyl)tetrahydro-2H-pyran-2-carboxamide] | 166 | 914 | –
7 | O=C(Nc1ccc(N2S(=O)(=O)c3ccccc3S2(=O)=O)cc1)c1ncc(F)cc1F [Example 11, 3,5-Difluoro-N-(4-(1,1,3,3-tetraoxidobenzo[d][1,3,2]dithiazol-2-yl)phenyl)picolinamide] | 195 | 1650 | –
8 | O=C(Nc1ccc(N2S(=O)(=O)c3ccccc3S2(=O)=O)cc1F)c1ccco1 [Example 12, N-(2-fluoro-4-(1,1,3,3-tetraoxidobenzo[d][1,3,2]dithiazol-2-yl)phenyl)furan-2-carboxamide] | 125 | 9130 | –
9 | O=C(Nc1ccc(N2S(=O)(=O)c3ccccc3S2(=O)=O)cc1F)c1ccccn1 [Example 13, N-(2-fluoro-4-(1,1,3,3-tetraoxidobenzo[d][1,3,2]dithiazol-2-yl)phenyl)picolinamide] | 62 | 739 | –
10 | O=C(Nc1ccccn1)c1ccc(N2S(=O)(=O)c3ccccc3S2(=O)=O)cc1 [Example 14, N-(pyridin-2-yl)-4-(1,1,3,3-tetraoxidobenzo[d][1,3,2]dithiazol-2-yl)benzamide] | 39 | 113 | –
11 | O=S1(=O)c2ccccc2S(=O)(=O)N1c1ccc(NCc2ccccn2)cc1 [Example 16, 2-(4-((pyridine-2-ylmethyl)amino)phenyl)benzo[d][1,3,2]dithiazole-1,1,3,3-tetraoxide] | 161 | 2140 | –
12 | O=S1(=O)c2ccccc2S(=O)(=O)N1c1ccc(Nc2ccccn2)nc1 [Example 18, 2-(6-(pyridin-2-ylamino)pyridin-3-yl)benzo[d][1,3,2]dithiazole 1,1,3,3-tetraoxide] | 73 | 5450 | –
13 | O=C(Nc1ccc(N2S(=O)(=O)c3ccccc3S2(=O)=O)cc1)C1CCCCC1 [drawing 138] | – | – | V/F [2]: 6.7 L; Cmax Brain ([2]; brain): 983.43 ± 188.76 ng/mL or g; AUC(0-8) Brain ([2]; brain): 6295.60 ± 876.30; half-life [2, 3]: 12.2 h; Tmax [2, 4]: 0.5 h; Log BB ([2]; rat): 0.26; Cmax ([2]; rat, plasma): 1930 ± 845 ng/mL; AUC(0-t) ([2]; rat, plasma): 3400 ± 2990 ng·h/mL; half-life [2, 5]: 1.67 h; Tmax [2, 6]: 0.5 h; CL/F ([2]; rat, plasma): 46.7 mL/min/kg
14 | O=C(Nc1ccc(N2S(=O)(=O)c3ccccc3S2(=O)=O)cc1)c1ccccc1 [drawing 139] | – | – | V/F [2]: 5.2 L; Cmax Brain ([2]; brain): 775.51 ± 90.00 ng/mL or g; AUC(0-8) Brain ([2]; brain): 405.32 ± 98.82; Log BB [2]: −0.9; Tmax [2, 4]: 1 h; Cmax ([2]; rat, plasma): 1470 ± 41 ng/mL; AUC(0-t) ([2]; rat, plasma): 3280 ± 244 ng·h/mL; half-life [2, 5]: 1.21 h; Tmax [2, 6]: 1 h; CL/F ([2]; rat, plasma): 51.2 mL/min/kg
15 | O=C(Nc1ccc(N2S(=O)(=O)c3ccccc3S2(=O)=O)cc1)c1ccco1 [drawing 140] | – | – | V/F [2]: 1.49 L; Cmax Brain ([2]; brain): 2842.81 ± 544.93 ng/mL or g; AUC(0-8) Brain ([2]; brain): 12937.04 ± 2079.74; Log BB [2]: −0.19; half-life [2, 3]: 3.79 h; Tmax [2, 4]: 1 h; Cmax ([2]; rat, plasma): 5690 ± 1360 ng/mL; AUC(0-t) ([2]; rat, plasma): 20500 ± 5180 ng·h/mL; half-life [2, 5]: 2.39 h; Tmax [2, 6]: 1 h; CL/F ([2]; rat, plasma): 7.16 mL/min/kg

More lines, main results first:

Row | % GluMax [1] [%] | EC50 [1] [nM] | SMILES | also measured
16 | 284 | 50 | O=C(Nc1ccc(N2S(=O)(=O)c3ccccc3S2(=O)=O)cc1)c1ccco1 [Example 2, N-(4-(1,1,3,3-tetraoxidobenzo[d][1,3,2]dithiazol-2-yl)phenyl)furan-2-carboxamide] | –
17 | 254 | 38.1 | O=C(Nc1ccc(N2S(=O)(=O)c3ccccc3S2(=O)=O)cc1)c1ccccn1 [Example 4, N-(4-(1,1,3,3-tetraoxidobenzo[d][1,3,2]dithiazol-2-yl)phenyl)picolinamide] | –
18 | 216 | 142 | O=C(Nc1ccc(N2S(=O)(=O)c3ccccc3S2(=O)=O)cc1)c1nccs1 [Example 7, N-(4-(1,1,3,3-tetraoxidobenzo[d][1,3,2]dithiazol-2-yl)phenyl)thiazole-2-carboxamide] | –
19 | 231 | 68.8 | O=C(Nc1ccc(N2S(=O)(=O)c3ccccc3S2(=O)=O)cc1)c1cscn1 [Example 10, N-(4-(1,1,3,3-tetraoxidobenzo[d][1,3,2]dithiazol-2-yl)phenyl)thiazole-4-carboxamide] | –
20 | 84 | 272 | O=C(Nc1ccc(F)cn1)c1ccc(N2S(=O)(=O)c3ccccc3S2(=O)=O)cc1 [Example 15, N-(5-fluoropyridin-2-yl)-4-(1,1,3,3-tetraoxidobenzo[d][1,3,2]dithiazol-2-yl)benzamide] | –
21 | 165 | 134 | O=S1(=O)c2ccccc2S(=O)(=O)N1c1ccc(NC2(c3ccccn3)CC2)cc1 [Example 17] | –
